Source: publication PMC8296573, “Synthesis and Biological Evaluation of Fingolimod Derivatives as Antibacterial Agents” (ACS Omega, 2021)
In brackets after ≈: the same amount, converted by molar mass. Where two headings read alike, the source gives them in different places.

Tests used:
[1] = system: P. aeruginosa ATCC 9027; assay: Antibacterial activity, pre-exposure; type: cell-based, Pseudomonas aeruginosa; conditions: pre-exposure; Inactive = no activity up to 200 μM; > = some inhibition but no MIC reached; read-out: MIC P. aeruginosa ATCC 9027
Method: The antimicrobial activity was assessed in a similar way for the initial screening and the dose–response evaluation against different bacterial strains. With the exception of the post-exposure experiment, the compounds were added to the wells along with the bacteria to test the ability of compounds to prevent bacterial growth and biofilm formation (pre-exposure). The compounds were diluted in DMSO and plated directly in 96-well plates before adding the bacterial culture, and plates were incubated for 18 h under aerobic conditions at 37 °C with shaking (220 rpm). The antibacterial activity of the compounds was assessed on planktonic cells and biofilms separately using two different measurements for each: optical density (turbidity) and resazurin reduction (viability) on planktonic cells and resazurin followed by a crystal violet staining assay (total biomass) on biofilms, as described in the following sections.
(§1) The resazurin staining was performed according to the protocol previously optimized with a few modifications.[46] Briefly, the planktonic solution was first transferred into a new 96-well plate and the OD of the planktonic solution was measured using a Varioskan LUX Multimode microplate reader (Thermo Scientific, Vantaa, Finland). Then, 10 μL of a 400 μM resazurin (R7017, Sigma-Aldrich, St. Louis, MO) diluted in phosphate-buffered saline (PBS) (Thermo Fisher Scientific, MA) was added to the wells (for a final resazurin concentration of 20 μM). The plate was incubated in the dark with shaking (220 rpm) for about 3–10 min at room temperature with S. aureus and A. baumannii (until the bacteria controls turned pink) or for 20 min at 37 °C with P. aeruginosa. Fluorescence was measured at λex = 560 nm and λem = 590 nm using the top optics of the Varioskan LUX Multimode microplate reader. The planktonic plate was then discarded. The original challenge plate containing the biofilms was washed once with PBS, and 200 μL of a 20 μM resazurin solution was added to the wells. The plate was incubated in the dark at 37 °C with shaking (220 rpm) for 30 min with S. aureus, 60 min with A. baumannii, and 90 min with P. aeruginosa. Fluorescence was measured as described for the planktonic solution. The biofilms were next treated with crystal violet staining.
(§2) After removing the resazurin solution from the plate, biofilms were fixed with ethanol 100% for 15 min at room temperature. Ethanol was then removed, and the biofilms were left to air-dry completely at RT. Crystal violet, diluted to 1:100 in deionized water from the 2.3% commercial solution (HT90132, Sigma-Aldrich, St. Louis, MO), was added to the wells and, after a 5 min incubation with the dye, the biofilms were washed twice with deionized water and left to air-dry for about 10 min. The dye was solubilized in ethanol 100% for 1 h, and absorbance was measured at 595 nm using a Multiskan Sky microplate spectrophotometer (Thermo Scientific, Vantaa, Finland).

[2] = system: S. aureus ATCC 25923; assay: Antibacterial activity, pre-exposure (planktonic cells and biofilm formation); type: cell-based, Staphylococcus aureus; conditions: for MIC / inhibition at 5 µM / inhibition at 10 µM / inhibition at 15 µM / inhibition at 25 µM: Staphylococcus aureus, ATCC25923; for inhibition at 5 µM / inhibition at 10 µM / inhibition at 15 µM / inhibition at 25 µM / Average inhibition %, biofilms viability / Average inhibition %, planktonic cells viability: pre-exposure, ± SD
Procedure, shortened: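 Pre-exposure format: compounds added with bacteria, 18 h aerobic at 37 °C with shaking. Planktonic growth read by OD and resazurin (20 μM final) fluorescence; biofilms by resazurin viability then crystal violet biomass (A595). Resazurin incubation time/temperature varied by species.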

[3] = system: S. aureus ATCC 25923; assay: Antibacterial activity, post-exposure on preformed 18-h-old biofilms; type: cell-based, Staphylococcus aureus; conditions: for Average inhibition %, biofilms viability / Average inhibition %, planktonic cells viability / inhibition at 25 µM / inhibition at 50 µM / inhibition at 100 µM / inhibition at 200 µM: ± SD; for inhibition at 25 µM / inhibition at 50 µM / inhibition at 100 µM / inhibition at 200 µM: Staphylococcus aureus; for inhibition at 25 µM: ATCC25923, 25 µM; for inhibition at 50 µM: ATCC25923, 50 µM; for inhibition at 100 µM: ATCC25923, 100 µM; for inhibition at 200 µM: ATCC25923, 200 µM
Method: For the post-exposure experiment, bacteria were grown with no compounds in the same conditions for 18 h, after which the media was changed, and compounds were added on the preformed biofilms. The plates were then incubated in the same conditions for an additional 24 h before proceeding to the staining assays.
as §1, §2

[4] = read-out: Average inhibition %, biofilms biomass
[5] = read-out: Average inhibition %, planktonic cells turbidity

CCCCCCCCc1ccc(C(O)CC(N)(CO)CO)cc1 (stereo not drawn) [Compound 54, 3-Amino-3-(hydroxymethyl)-1-(4-octylphenyl)butane-1,4-diol]
MIC [1]: 100 µM (≈ 32.3 µg/mL) | MIC ([2]; lowest concentration with no visible growth (>90% inhibition of turbidity and viability of planktonic cells), 18 h, read-out: MIC S. aureus ATCC 25923): 25 µM (≈ 8.09 µg/mL) | inhibition at 5 µM ([2]; 5 µM, read-out: Average inhibition %, biofilms biomass): 21.2 ± 18.4% | inhibition at 5 µM ([2]; 5 µM, read-out: Average inhibition %, planktonic cells turbidity): 34.1 ± 32.1% | inhibition at 10 µM ([2]; 10 µM, read-out: Average inhibition %, biofilms biomass): 23.7 ± 8.7% | inhibition at 10 µM ([2]; 10 µM, read-out: Average inhibition %, planktonic cells turbidity): 38.3 ± 27% | inhibition at 15 µM ([2]; 15 µM, read-out: Average inhibition %, biofilms biomass): 39.3 ± 23.6% | inhibition at 15 µM ([2]; 15 µM, read-out: Average inhibition %, planktonic cells turbidity): 44.1 ± 23.3% | inhibition at 25 µM ([2]; 25 µM, read-out: Average inhibition %, biofilms biomass): 93.7 ± 4.1% | inhibition at 25 µM ([2]; 25 µM, read-out: Average inhibition %, planktonic cells turbidity): 98.8 ± 1% | MIC ([2]; read-out: MIC (S. aureus)): 25 µM (≈ 8.09 µg/mL) | Average inhibition %, biofilms viability ([2]; 5 µM): 21.2 ± 4.7% | Average inhibition %, planktonic cells viability ([2]; 5 µM): 11.9 ± 20.6% | Average inhibition %, biofilms viability ([2]; 10 µM): 28.3 ± 15.2% | Average inhibition %, planktonic cells viability ([2]; 10 µM): 10.2 ± 17.7% | Average inhibition %, biofilms viability ([2]; 15 µM): 28.6 ± 10.1% | Average inhibition %, planktonic cells viability ([2]; 15 µM): 8.5 ± 14.7% | Average inhibition %, biofilms viability ([2]; 25 µM): 99.5 ± 0.6% | Average inhibition %, planktonic cells viability ([2]; 25 µM): 99.8 ± 0.1% | Average inhibition %, biofilms viability ([3]; 25 µM): 11.2 ± 0.8% | Average inhibition %, planktonic cells viability ([3]; 25 µM): 15 ± 26.1% | Average inhibition %, biofilms viability ([3]; 50 µM): 23.6 ± 12.7% | Average inhibition %, planktonic cells viability ([3]; 50 µM): 0 ± 0% | Inhibition of viability and total biomass of preformed biofilms ([3]; 100 μM): at least 70% | Average inhibition %, biofilms viability ([3]; 100 µM): 82.1 ± 27.3% | Average inhibition %, planktonic cells viability ([3]; 100 µM): 97.9 ± 3.4% | Average inhibition %, biofilms viability ([3]; 200 µM): 99.8 ± 0.2% | Average inhibition %, planktonic cells viability ([3]; 200 µM): 100.1 ± 0.2% | inhibition at 25 µM [3, 4]: 44 ± 14.9% | inhibition at 25 µM [3, 5]: 5.1 ± 6.4% | inhibition at 50 µM [3, 4]: 55.3 ± 3% | inhibition at 50 µM [3, 5]: 17.4 ± 3.4% | inhibition at 100 µM [3, 4]: 83.5 ± 19% | inhibition at 100 µM [3, 5]: 82.6 ± 4.7% | inhibition at 200 µM [3, 4]: 86.4 ± 3.9% | inhibition at 200 µM [3, 5]: 83.6 ± 3.7%
